Measured values reported in ChEMBL document CHEMBL1201862, “PubChem BioAssay data set” (2004).
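How tested: cells in 96-well plates exposed to compound for 48 hours at five concentrations. GI50 = concentration required for 50% inhibition of growth.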 Activity calls are given as the source filed them. Rule as the data show it: active = GI50 up to about 1.1 µM and inactive = higher.

Assays:
Experiment in all cases: NCI anticancer screen, dose series, 48 h
[1] = tested on: A498
[2] = tested on: DU-145
[3] = tested on: HCT-116
[4] = tested on: HOP-62
[5] = tested on: HT-29
[6] = tested on: Hs-578T
[7] = tested on: IGROV-1
[8] = tested on: LOX IMVI
[9] = tested on: MCF7
[10] = tested on: MDA-MB-435
[11] = tested on: MDA-N
[12] = tested on: NCI-H226
[13] = tested on: OVCAR-8
[14] = tested on: RPMI-8226
[15] = tested on: SF-268
[16] = tested on: SF-539
[17] = tested on: SK-MEL-28
[18] = tested on: SK-MEL-2
[19] = tested on: SNB-19
[20] = tested on: TK-10

| SMILES | GI50 [1] | GI50 [2] | GI50 [3] | GI50 [4] | GI50 [5] | GI50 [6] | GI50 [7] | GI50 [8] | GI50 [9] | GI50 [10] | GI50 [11] | GI50 [12] | GI50 [13] | GI50 [14] | GI50 [15] | GI50 [16] | GI50 [17] | GI50 [18] | GI50 [19] | GI50 [20] |
| --- | --- | --- | --- | --- | --- | --- | --- | --- | --- | --- | --- | --- | --- | --- | --- | --- | --- | --- | --- | --- |
| CN/N=C(\C)C(CN(C)C)C(c1ccccc1)c1c(O)c2ccccc2oc1=O (stereo not given) | > 100 µM (inactive) | > 100 µM (inactive) | > 100 µM (inactive) | > 100 µM (inactive) | > 100 µM (inactive) | > 100 µM (inactive) | > 100 µM (inactive) | > 100 µM (inactive) | > 100 µM (inactive) | > 100 µM (inactive) | > 100 µM (inactive) | > 100 µM (inactive) | > 100 µM (inactive) | 42 µM (inactive) | > 100 µM (inactive) | > 100 µM (inactive) | > 100 µM (inactive) | > 100 µM (inactive) | > 100 µM (inactive) | > 100 µM (inactive) |
| c1cc2c(cc1C(N1CCNCC1)N1CCNCC1)OCO2 | > 100 µM (inactive) | > 100 µM (inactive) | > 100 µM (inactive) | > 100 µM (inactive) | > 100 µM (inactive) | > 100 µM (inactive) | > 100 µM (inactive) | > 100 µM (inactive) | > 100 µM (inactive) | > 100 µM (inactive) | > 100 µM (inactive) | > 100 µM (inactive) | > 100 µM (inactive) | 40.9 µM (inactive) | > 100 µM (inactive) | > 100 µM (inactive) | > 100 µM (inactive) | > 100 µM (inactive) | > 100 µM (inactive) | > 100 µM (inactive) |
| CN(C)c1ccc(/C(Br)=C2\OC(=O)c3ccccc32)cc1 | > 100 µM (inactive) | > 100 µM (inactive) | > 100 µM (inactive) | > 100 µM (inactive) | 42.3 µM (inactive) | > 100 µM (inactive) | > 100 µM (inactive) | > 100 µM (inactive) | 0.759 µM (active) | 36.1 µM (inactive) | 40.1 µM (inactive) | 24.4 µM (inactive) | > 100 µM (inactive) | 24.3 µM (inactive) | > 100 µM (inactive) | > 100 µM (inactive) | > 100 µM (inactive) | 92.9 µM (inactive) | > 100 µM (inactive) | > 100 µM (inactive) |
